Values quoted from earlier work in patent US6849609B2, “Method and composition for controlled release acarbose formulations” (priority 2001, dated 2005).

Test system: patients

## C[C@H]1O[C@H](O[C@H]2[C@H](O)[C@@H](O)[C@@H](O[C@H]3[C@H](O)[C@@H](O)C(O)O[C@@H]3CO)O[C@@H]2CO)[C@H](O)[C@@H](O)[C@@H]1N[C@H]1C=C(CO)[C@@H](O)[C@H](O)[C@H]1O (some centres unmarked) [Acarbose]
Acarbose alone, even when administered to patients in a fasted state
  hypoglycemia: has not been shown to cause hypoglycemia
Patients taking acarbose, shown to abate with time
  most common adverse events: flatulence, diarrhea and abdominal discomfort
